The record followed here is ChEMBL document CHEMBL1201862, “PubChem BioAssay data set” (2004).

Calls of active or inactive are those of the source.

Test [1] has as its target Eukaryotic translation initiation factor 4E (Mus musculus, UniProt P63073). As to the kind of experiment: blockers of eIF4G binding by eIF4E – biochemical, TR-FRET, dose response (AID 855).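 Also: potency for disrupting eIF4E binding to eIF4GI seen as loss of FRET.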 Format: functional. On the technique in general: TR-FRET usually uses a lanthanide donor and a delayed reading to cut background.
In test [2] the target is DNA dC->dU-editing enzyme APOBEC-3G (Homo sapiens, UniProt Q9HC16). Nature of the test: Dose Response confirmation of small molecule APOBEC3G DNA Deaminase Inhibitors via a fluorescence-based single-stranded DNA deaminase assay. [Related pubchem assays (depositor defined):AID493012, AID493028]. The test is classed as functional.
Sequence of DNA dC->dU-editing enzyme APOBEC-3G (Q9HC16 whole entry): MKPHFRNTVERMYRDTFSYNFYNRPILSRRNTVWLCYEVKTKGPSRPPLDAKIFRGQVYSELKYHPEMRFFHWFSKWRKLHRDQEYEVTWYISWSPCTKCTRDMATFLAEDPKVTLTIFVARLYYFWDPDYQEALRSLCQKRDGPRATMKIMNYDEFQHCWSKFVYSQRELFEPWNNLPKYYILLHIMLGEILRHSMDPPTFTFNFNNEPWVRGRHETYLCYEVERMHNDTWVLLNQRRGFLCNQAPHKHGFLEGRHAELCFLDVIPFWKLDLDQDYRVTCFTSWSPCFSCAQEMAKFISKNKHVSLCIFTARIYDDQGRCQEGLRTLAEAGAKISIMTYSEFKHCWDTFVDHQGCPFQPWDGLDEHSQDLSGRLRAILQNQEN
Test [3] addresses T1, Mannose-6-phosphate isomerase (Homo sapiens, UniProt P34949).
T1 sequence (P34949 whole entry): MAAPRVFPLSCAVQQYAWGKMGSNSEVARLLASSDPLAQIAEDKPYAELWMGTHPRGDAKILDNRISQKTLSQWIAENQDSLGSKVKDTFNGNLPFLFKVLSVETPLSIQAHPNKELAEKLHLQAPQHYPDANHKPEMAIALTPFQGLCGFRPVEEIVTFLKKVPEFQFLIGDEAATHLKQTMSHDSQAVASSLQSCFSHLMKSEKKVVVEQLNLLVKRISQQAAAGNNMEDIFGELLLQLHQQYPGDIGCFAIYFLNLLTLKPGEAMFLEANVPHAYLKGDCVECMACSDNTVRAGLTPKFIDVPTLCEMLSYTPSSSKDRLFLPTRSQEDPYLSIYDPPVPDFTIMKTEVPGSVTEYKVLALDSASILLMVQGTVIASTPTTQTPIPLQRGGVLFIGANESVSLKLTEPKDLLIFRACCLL
Nature of the test: MPI inhibition at elevated mannose 6-phosphate – biochemical, fluorescence intensity, high mannose 6-phosphate, primary screen (AID 1220).

Test [4] concerns the target T1, Mannose-6-phosphate isomerase. As to the kind of experiment: MPI enzyme activity inhibition – biochemical, fluorescence intensity, coupled assay, primary screen (AID 1209).
Test [5] concerns the target T2, Lysine-specific demethylase 4C (Homo sapiens, UniProt Q9H3R0).
T2 sequence (Q9H3R0 whole entry): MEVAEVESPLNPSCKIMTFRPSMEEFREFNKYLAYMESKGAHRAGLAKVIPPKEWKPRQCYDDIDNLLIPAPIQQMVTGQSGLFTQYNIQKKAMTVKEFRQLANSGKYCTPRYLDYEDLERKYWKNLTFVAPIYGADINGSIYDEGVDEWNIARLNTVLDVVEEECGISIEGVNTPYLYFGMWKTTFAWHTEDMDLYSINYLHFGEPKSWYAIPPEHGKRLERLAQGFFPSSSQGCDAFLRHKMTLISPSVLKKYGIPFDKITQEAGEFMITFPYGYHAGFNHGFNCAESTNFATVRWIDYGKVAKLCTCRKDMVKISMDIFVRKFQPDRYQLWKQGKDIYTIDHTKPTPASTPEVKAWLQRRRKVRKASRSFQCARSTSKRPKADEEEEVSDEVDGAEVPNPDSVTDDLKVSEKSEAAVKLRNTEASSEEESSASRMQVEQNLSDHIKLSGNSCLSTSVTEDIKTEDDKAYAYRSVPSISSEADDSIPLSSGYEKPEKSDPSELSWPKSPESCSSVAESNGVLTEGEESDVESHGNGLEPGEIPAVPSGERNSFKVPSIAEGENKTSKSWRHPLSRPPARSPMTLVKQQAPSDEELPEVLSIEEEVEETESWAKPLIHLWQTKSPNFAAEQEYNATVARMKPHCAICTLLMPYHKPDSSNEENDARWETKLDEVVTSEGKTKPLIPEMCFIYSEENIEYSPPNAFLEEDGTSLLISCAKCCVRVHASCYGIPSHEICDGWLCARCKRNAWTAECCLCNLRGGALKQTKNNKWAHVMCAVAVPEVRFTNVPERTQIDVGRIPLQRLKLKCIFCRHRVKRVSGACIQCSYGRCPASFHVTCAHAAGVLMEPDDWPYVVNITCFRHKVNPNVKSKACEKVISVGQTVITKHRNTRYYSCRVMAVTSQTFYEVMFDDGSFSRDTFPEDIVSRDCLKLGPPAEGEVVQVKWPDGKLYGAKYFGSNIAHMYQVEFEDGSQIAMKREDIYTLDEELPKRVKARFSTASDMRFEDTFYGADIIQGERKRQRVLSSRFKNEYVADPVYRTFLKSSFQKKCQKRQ
As to the kind of experiment: inhibition of JMJD2C H3K9me3 demethylation – biochemical, DELFIA europium, cherry-picked samples, dose response (AID 488835). The test is classed as functional.

In test [6] the target is Aspartyl aminopeptidase (Plasmodium falciparum 3D7, UniProt Q8I2J3). As to the kind of experiment: Counterscreen for inhibitors of M1 and M17 aminopeptidases: QFRET-based biochemical high throughput dose response assay for inhibitors of the Plasmodium falciparum M18 Aspartyl Aminopeptidase (PFM18AAP). [Related PubChem assays: 1619 (Screening assay (M17LAP inhibitors).), 1445 (Screening assay (M1AAP inhibitors).)]. Background: A counterscreen serves to expose hits that act by an unwanted route or on another target.
Sequence of Aspartyl aminopeptidase (Q8I2J3 whole entry): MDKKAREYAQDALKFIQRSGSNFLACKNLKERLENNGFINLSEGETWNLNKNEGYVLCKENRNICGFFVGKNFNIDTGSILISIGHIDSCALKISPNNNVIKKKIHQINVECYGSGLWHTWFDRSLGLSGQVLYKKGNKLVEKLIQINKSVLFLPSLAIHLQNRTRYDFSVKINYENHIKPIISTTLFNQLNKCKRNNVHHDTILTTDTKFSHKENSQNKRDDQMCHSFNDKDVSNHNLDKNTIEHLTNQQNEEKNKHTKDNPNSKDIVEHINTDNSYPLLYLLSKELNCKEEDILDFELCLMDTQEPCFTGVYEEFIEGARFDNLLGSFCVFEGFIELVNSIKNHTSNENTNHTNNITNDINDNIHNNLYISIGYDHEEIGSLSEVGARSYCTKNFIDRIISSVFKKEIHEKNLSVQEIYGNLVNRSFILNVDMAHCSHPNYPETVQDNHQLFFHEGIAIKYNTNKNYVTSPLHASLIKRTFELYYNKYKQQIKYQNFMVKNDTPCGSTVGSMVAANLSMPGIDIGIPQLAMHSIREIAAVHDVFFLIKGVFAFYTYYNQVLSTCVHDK

The target in test [7] is Procathepsin L (Homo sapiens, UniProt P07711). As to the kind of experiment: CTSL1 protease inhibition – biochemical, QFRET, 1536-well, counter-screen for M1/M17 aminopeptidase inhibitor project, dose response (AID 2214).
Sequence of Procathepsin L (P07711 whole entry): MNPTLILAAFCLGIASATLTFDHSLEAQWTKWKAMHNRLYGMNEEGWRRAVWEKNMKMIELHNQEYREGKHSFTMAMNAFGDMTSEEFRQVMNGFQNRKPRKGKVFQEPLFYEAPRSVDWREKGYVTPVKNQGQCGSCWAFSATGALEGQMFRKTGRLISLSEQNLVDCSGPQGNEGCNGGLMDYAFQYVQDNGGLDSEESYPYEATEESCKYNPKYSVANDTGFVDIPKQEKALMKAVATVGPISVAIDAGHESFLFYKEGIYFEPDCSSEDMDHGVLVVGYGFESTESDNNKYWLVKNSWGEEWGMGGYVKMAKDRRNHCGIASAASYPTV
Test [8] addresses T3, Leucine aminopeptidase (Plasmodium falciparum 3D7, UniProt Q8IL11).
T3 sequence (Q8IL11 whole entry): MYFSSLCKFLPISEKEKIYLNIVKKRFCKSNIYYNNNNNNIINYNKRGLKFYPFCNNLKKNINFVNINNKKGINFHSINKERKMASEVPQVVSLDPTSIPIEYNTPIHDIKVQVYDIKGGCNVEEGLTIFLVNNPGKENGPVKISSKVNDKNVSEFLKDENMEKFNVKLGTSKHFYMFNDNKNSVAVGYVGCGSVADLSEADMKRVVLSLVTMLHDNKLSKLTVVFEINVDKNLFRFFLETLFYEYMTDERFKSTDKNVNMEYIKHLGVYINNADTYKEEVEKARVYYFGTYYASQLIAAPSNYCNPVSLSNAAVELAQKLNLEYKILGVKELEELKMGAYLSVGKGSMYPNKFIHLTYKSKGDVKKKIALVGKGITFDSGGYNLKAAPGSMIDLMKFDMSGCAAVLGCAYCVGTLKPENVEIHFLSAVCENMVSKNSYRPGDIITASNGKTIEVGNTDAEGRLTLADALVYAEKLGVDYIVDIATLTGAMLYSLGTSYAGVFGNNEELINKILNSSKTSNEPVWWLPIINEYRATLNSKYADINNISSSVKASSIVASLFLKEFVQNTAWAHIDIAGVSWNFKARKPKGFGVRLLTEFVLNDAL
Nature of the test: P. falciparum M17LAP inhibitors, primary screen, biochemical, fluorogenic H-Leu-NHMec substrate, 1536-well (AID 1619). The test is classed as functional.

Test [9] concerns the target T4, Estrogen receptor (Homo sapiens, UniProt P03372).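 Also: potency for inhibiting coactivator peptide recruitment to the receptor.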
T4 sequence (P03372 whole entry): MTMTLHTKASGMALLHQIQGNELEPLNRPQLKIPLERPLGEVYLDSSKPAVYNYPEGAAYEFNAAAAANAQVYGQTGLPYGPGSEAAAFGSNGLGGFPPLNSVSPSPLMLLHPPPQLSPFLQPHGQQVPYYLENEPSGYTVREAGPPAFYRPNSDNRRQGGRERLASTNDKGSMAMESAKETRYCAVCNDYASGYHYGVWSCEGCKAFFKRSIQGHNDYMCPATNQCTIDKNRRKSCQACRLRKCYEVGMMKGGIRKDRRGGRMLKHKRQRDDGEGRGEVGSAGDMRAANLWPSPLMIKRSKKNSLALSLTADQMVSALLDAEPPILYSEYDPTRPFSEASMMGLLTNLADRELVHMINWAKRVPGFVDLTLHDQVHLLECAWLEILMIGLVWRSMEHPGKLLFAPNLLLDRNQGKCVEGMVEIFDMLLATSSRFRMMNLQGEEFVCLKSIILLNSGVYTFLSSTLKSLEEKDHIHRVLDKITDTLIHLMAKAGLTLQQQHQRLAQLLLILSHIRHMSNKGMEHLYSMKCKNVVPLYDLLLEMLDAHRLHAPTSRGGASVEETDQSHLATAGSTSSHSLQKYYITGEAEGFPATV

The target in test [10] is T5, Bcl-2-like protein 10 (Homo sapiens, UniProt Q9HD36).
T5 sequence (Q9HD36 whole entry): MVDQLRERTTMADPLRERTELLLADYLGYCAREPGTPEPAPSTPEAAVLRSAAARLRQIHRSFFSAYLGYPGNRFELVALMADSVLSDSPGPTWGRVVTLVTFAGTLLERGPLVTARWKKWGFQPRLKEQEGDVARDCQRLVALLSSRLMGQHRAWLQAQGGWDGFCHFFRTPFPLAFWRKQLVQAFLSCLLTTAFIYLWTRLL
Nature of the test: Bcl-B/TR3 peptide binding disruption – biochemical, fluorescence polarization, FITC-TR3 peptide, selectivity assay for Bfl-1 inhibitor project, primary screen (AID 748).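 Also: fluorescence polarization from a fluorescein-labelled TR3 peptide binding purified Bcl-B.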 In general terms: Polarisation of emitted light reports the rotation of a fluorescent probe.

Sequence of Eukaryotic translation initiation factor 4E (P63073 whole entry): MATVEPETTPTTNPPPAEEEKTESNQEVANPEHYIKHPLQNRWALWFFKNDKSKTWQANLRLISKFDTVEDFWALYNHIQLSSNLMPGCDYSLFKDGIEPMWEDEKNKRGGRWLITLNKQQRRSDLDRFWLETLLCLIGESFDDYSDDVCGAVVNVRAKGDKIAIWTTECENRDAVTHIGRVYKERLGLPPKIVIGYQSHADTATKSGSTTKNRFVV

As usually defined, the IC50 is the point on the concentration scale where inhibition reaches its midpoint. By AC50 is commonly meant the midpoint of the concentration-response curve, whichever way the signal moves. `COc1ccc(/N=c2\ssnc2Cl)cc1`: the IC50 in test [1] was 43.2 µM (inactive); in [2], 9.96 µM (active); in [3], 21.6 µM (active); in [4] it was 14.4 µM (active). Besides, the half-maximal activity concentration (AC50) in [5] was 39.1 µM (active).
Regarding `COc1cc(NC(=O)CSc2nc3ccccc3cc2C)c(C(=O)O)cc1OC`, the IC50 in test [6] was > 73.5 µM (not active); in [7], > 59.6 µM (not active); in test [8], 1.57 µM (active).
Turning to `CCOC(=O)C1=C(C)S/C(=C\N(C)C)C1=O`, the 50% inhibitory concentration (IC50) was 40.3 µM (not active) in [9] and 37.8 µM (active) in [10].
